From the supplement of paper PMC10307832

What was measured:
Experiment in all cases: relative viability (nuclei count vs DMSO), 5 days (fraction); higher = more cells survive
GSK126 + Bortezomib = compound: CC[C@H](C)N1C=C(C2=C(C=C(C=C21)C3=CN=C(C=C3)N4CCNCC4)C(=O)NCC5=C(C=C(NC5=O)C)C)C [GSK126] + CC(C)C[C@H](NC(=O)[C@H](Cc1ccccc1)NC(=O)c1cnccn1)B(O)O [Bortezomib] (partner 0.002 µM)
How it was run: (§1)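 After 5 days of treatment, lung cancer cells in 1536-well plates were fixed and stained in a single step (final 0.05% Triton X-100, 1% formaldehyde, 1 ug/ml Hoechst) and their nuclei counted on 4× images. Treatment had been applied by pin tool the day after seeding as one drug alone or as a fixed anchor-drug dose with five library-drug doses (not always all listed) in √10 steps. Relative viability is the nuclei count of treated wells divided by that of vehicle wells, and values are medians of duplicate plates.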

GSK126 + Foretinib = compound: CC[C@H](C)N1C=C(C2=C(C=C(C=C21)C3=CN=C(C=C3)N4CCNCC4)C(=O)NCC5=C(C=C(NC5=O)C)C)C [GSK126] + COc1cc2c(Oc3ccc(NC(=O)C4(C(=O)Nc5ccc(F)cc5)CC4)cc3F)ccnc2cc1OCCCN1CCOCC1 [Foretinib] (partner 0.25 µM)
How it was run: as §1

[1] = compound: C1CC(C1)(C(=O)O)C(=O)O.[NH2-].[NH2-].[Pt+2] [Carboplatin] + CC(=O)c1c(C)c2cnc(Nc3ccc(N4CCNCC4)cn3)nc2n(C2CCCC2)c1=O [Palbociclib] (partner 0.5 µM)
How it was run: as §1

GSK126 + Lapatinib = compound: CC[C@H](C)N1C=C(C2=C(C=C(C=C21)C3=CN=C(C=C3)N4CCNCC4)C(=O)NCC5=C(C=C(NC5=O)C)C)C [GSK126] + CS(=O)(=O)CCNCc1ccc(-c2ccc3ncnc(Nc4ccc(OCc5cccc(F)c5)c(Cl)c4)c3c2)o1 [Lapatinib] (partner 2 µM)
How it was run: as §1

Cell Line	relative viability (GSK126 + Bortezomib; first compound 0.08 µM)	relative viability (GSK126 + Bortezomib; first compound 0.253 µM)	relative viability (GSK126 + Bortezomib; first compound 0.8 µM)	relative viability (GSK126 + Bortezomib; first compound 2.53 µM)	relative viability (GSK126 + Bortezomib; first compound 8 µM)	relative viability (GSK126 + Foretinib; first compound 0.08 µM)	relative viability (GSK126 + Foretinib; first compound 0.253 µM)	relative viability (GSK126 + Foretinib; first compound 0.8 µM)	relative viability (GSK126 + Foretinib; first compound 2.53 µM)	relative viability (GSK126 + Foretinib; first compound 8 µM)	relative viability ([1]; first compound 0.08 µM)	relative viability ([1]; first compound 0.253 µM)	relative viability ([1]; first compound 0.8 µM)	relative viability ([1]; first compound 2.53 µM)	relative viability ([1]; first compound 8 µM)	relative viability (GSK126 + Lapatinib; first compound 0.08 µM)	relative viability (GSK126 + Lapatinib; first compound 0.253 µM)	relative viability (GSK126 + Lapatinib; first compound 0.8 µM)	relative viability (GSK126 + Lapatinib; first compound 2.53 µM)	relative viability (GSK126 + Lapatinib; first compound 8 µM)
HCC-827	1.07	1.09	1.02	1.09	0.965	1.02	1.02	1.01	1.03	1.09	0.479	0.38	0.499	0.44	0.469	0.189	0.179	0.19	0.152	0.197
HOP-62	0.645	0.816	0.862	0.837	0.724	1.11	1.08	1.01	1.21	1.04	0.441	0.431	0.462	0.409	0.383	1.17	1.05	1.07	1.06	0.937
LC-2-ad	1.03	1.04	0.935	1.02	0.986	1.08	0.971	0.915	0.995	1.07	0.503	0.561	0.419	0.466	0.47	1.05	1.03	0.9	0.894	1.05
LCLC-97TM1	0.563	0.586	0.671	0.719	0.575	1.03	0.942	0.954	1.06	0.994	0.206	0.211	0.257	0.211	0.206	1.22	–	1.11	1.66	0.841
LOU-NH91	0.444	0.475	0.498	0.439	0.501	0.991	0.953	0.892	0.974	0.969	0.539	0.455	0.44	0.507	0.515	0.812	0.77	0.755	0.882	0.871
LU99A	1.13	1.08	1.19	1.15	1.12	0.826	0.838	0.74	0.746	0.694	0.468	0.392	0.39	0.424	0.314	1.07	1	0.913	1	0.99
LXF-289	1.04	0.996	1	1.01	1.04	0.962	1.01	0.952	0.973	1.02	0.629	0.59	0.635	0.563	0.583	0.92	0.84	0.894	0.885	0.881
NCI-H23	1.13	0.96	0.922	1.02	0.95	1	0.313	0.901	1.03	0.98	0.453	0.513	0.513	0.461	0.419	1.26	1.02	1.02	1.22	1.2
NCI-H322M	1.12	1.26	1.27	1.25	1.26	0.942	1.03	0.958	1.13	0.972	0.496	0.476	0.472	0.45	0.507	0.616	0.638	0.604	0.654	0.66
NCI-H460	1.34	1.1	1.06	1.09	1.18	1.04	0.998	0.977	0.997	1.06	0.232	0.147	0.127	0.0559	0.052	0.971	1.03	0.879	1.14	1.1
NCI-H520	0.745	0.709	0.571	0.522	0.754	1.04	0.693	0.719	0.78	0.909	0.26	0.2	0.201	0.223	0.228	1.09	0.713	0.722	0.898	0.922
NCI-H647	1.06	0.808	1.03	1.07	0.882	1.21	1.23	0.971	1.45	1.26	0.433	0.542	0.388	0.229	0.37	1.22	1.01	0.927	1.11	0.865
NCI-H650	0.812	0.814	0.762	0.804	0.727	1.15	1.02	0.954	1.02	1.03	0.318	0.337	0.332	0.276	0.232	0.833	0.838	0.97	0.978	0.955
NCI-H661	1	0.88	0.808	0.926	0.632	1.09	1.05	0.997	1.04	1.09	0.385	0.428	0.399	0.416	0.374	0.417	0.574	0.441	0.572	0.361
NCI-H727	1.02	0.78	0.899	0.854	0.88	1.09	0.981	0.888	1.01	0.744	0.732	0.668	0.726	0.573	0.591	0.746	0.81	0.984	0.884	1.06
NCI-H838	0.935	0.828	0.662	0.613	0.767	1.1	1.07	0.929	0.992	0.954	0.213	0.238	0.212	0.224	0.261	1.12	0.938	0.882	0.865	0.906
